This is an account of results in patent US8846949B2, “Pyrrolopyrazoles as N-type calcium channel blockers” (Janssen Pharmaceutica NV, priority 2012, dated 2014).

Structures are written as SMILES.

This experiment addresses T1, N-type calcium channel α1B (Cav2.2), β3 and α2δ subunits (Homo sapiens, UniProt Q00975).
T1 construct: expressed in transfected cells
Briefly: Functional assay, antagonism of N-type calcium channel (FDSS calcium mobilization response to KCl depolarization). It counts as cell-based. The settings on record: for inhibition at 0.33 µM: 0.33 μM compound; for IC50: HEK stable cell line, 50 mM KCl depolarization, six-point concentration-response. How it is done:
A stable cell line (HEK parent) co-expressing the α1B (Cav2.2), β3 and α2δ subunits of the N-type calcium channel subunits was used. These cells were routinely grown as monolayers in low glucose-containing Dulbecco's Modified Eagle Medium supplemented with 10% FBS, 2 mM L-glutamine, 100 I.U./mL penicillin, 100 μg/mL streptomycin, 400 μg/mL G418 and 200 μg/mL Zeocin (split ratio=1:5). Cells were maintained in 5% CO2 at 37° C. Compounds of Formula (I) were prepared as 10 mM stocks in DMSO from neat compound, if available. Otherwise, the 5 or 10 mM DMSO stock solutions provided in-house were used.
Calcium mobilization responses to KCl depolarization were evaluated by measuring the intensity of calcium-mediated fluorescent signal in the presence of BD Calcium Assay Dye (BD Biosciences, Franklin Lakes, N.J., U.S.A.), utilizing a Functional Drug Screening System (FDSS) by Hamamatsu Corporation (Bridgewater, N.J. U.S.A.).
Twenty-four hr prior to assay, cells were seeded in clear-base poly-D-lysine-coated 384-well plates (BD Biosciences) at a density of 5,000 cells per well in culture medium and grown overnight in 5% CO2 at 37° C. On the day of assay, growth media were removed, and cells were loaded with BD calcium assay dye (BD Biosciences) for 35 min at 37° C. under 5% CO2 and then for 25 min at room temp. Utilizing the FDSS, cells were exposed to representative compounds of Formula (I) at varying concentrations, and intracellular calcium was measured for 5 min prior to the addition of 50 mM KCl for an additional 3 min of measurement.
IC50 values for representative compounds of Formula (I) were determined from six-point concentration-response experiments and represent the concentration of said compound required to inhibit 50% of the maximal response. Maximal fluorescence intensity (FI) achieved upon addition of 50 mM KCl was exported from the FDSS software and further analyzed using GraphPad Prism 3.02 (Graph Pad Software Inc., San Diego, Calif., U.S.A.). Data were normalized to the maximum average counts from quadruplicate wells for each condition in the presence of 50 mM KCl and to the minimum average counts in the presence of buffer. Theoretical curves were generated using nonlinear regression curve-fitting analysis of either sigmoidal concentration-response or sigmoidal concentration-response (variable slope), and the IC50 values with the best-fit curve determined by GraphPad Prism were reported.
A general note: Calcium flux is commonly read through the fluorescence of an indicator in the cells.

T1 sequence (Q00975 whole entry): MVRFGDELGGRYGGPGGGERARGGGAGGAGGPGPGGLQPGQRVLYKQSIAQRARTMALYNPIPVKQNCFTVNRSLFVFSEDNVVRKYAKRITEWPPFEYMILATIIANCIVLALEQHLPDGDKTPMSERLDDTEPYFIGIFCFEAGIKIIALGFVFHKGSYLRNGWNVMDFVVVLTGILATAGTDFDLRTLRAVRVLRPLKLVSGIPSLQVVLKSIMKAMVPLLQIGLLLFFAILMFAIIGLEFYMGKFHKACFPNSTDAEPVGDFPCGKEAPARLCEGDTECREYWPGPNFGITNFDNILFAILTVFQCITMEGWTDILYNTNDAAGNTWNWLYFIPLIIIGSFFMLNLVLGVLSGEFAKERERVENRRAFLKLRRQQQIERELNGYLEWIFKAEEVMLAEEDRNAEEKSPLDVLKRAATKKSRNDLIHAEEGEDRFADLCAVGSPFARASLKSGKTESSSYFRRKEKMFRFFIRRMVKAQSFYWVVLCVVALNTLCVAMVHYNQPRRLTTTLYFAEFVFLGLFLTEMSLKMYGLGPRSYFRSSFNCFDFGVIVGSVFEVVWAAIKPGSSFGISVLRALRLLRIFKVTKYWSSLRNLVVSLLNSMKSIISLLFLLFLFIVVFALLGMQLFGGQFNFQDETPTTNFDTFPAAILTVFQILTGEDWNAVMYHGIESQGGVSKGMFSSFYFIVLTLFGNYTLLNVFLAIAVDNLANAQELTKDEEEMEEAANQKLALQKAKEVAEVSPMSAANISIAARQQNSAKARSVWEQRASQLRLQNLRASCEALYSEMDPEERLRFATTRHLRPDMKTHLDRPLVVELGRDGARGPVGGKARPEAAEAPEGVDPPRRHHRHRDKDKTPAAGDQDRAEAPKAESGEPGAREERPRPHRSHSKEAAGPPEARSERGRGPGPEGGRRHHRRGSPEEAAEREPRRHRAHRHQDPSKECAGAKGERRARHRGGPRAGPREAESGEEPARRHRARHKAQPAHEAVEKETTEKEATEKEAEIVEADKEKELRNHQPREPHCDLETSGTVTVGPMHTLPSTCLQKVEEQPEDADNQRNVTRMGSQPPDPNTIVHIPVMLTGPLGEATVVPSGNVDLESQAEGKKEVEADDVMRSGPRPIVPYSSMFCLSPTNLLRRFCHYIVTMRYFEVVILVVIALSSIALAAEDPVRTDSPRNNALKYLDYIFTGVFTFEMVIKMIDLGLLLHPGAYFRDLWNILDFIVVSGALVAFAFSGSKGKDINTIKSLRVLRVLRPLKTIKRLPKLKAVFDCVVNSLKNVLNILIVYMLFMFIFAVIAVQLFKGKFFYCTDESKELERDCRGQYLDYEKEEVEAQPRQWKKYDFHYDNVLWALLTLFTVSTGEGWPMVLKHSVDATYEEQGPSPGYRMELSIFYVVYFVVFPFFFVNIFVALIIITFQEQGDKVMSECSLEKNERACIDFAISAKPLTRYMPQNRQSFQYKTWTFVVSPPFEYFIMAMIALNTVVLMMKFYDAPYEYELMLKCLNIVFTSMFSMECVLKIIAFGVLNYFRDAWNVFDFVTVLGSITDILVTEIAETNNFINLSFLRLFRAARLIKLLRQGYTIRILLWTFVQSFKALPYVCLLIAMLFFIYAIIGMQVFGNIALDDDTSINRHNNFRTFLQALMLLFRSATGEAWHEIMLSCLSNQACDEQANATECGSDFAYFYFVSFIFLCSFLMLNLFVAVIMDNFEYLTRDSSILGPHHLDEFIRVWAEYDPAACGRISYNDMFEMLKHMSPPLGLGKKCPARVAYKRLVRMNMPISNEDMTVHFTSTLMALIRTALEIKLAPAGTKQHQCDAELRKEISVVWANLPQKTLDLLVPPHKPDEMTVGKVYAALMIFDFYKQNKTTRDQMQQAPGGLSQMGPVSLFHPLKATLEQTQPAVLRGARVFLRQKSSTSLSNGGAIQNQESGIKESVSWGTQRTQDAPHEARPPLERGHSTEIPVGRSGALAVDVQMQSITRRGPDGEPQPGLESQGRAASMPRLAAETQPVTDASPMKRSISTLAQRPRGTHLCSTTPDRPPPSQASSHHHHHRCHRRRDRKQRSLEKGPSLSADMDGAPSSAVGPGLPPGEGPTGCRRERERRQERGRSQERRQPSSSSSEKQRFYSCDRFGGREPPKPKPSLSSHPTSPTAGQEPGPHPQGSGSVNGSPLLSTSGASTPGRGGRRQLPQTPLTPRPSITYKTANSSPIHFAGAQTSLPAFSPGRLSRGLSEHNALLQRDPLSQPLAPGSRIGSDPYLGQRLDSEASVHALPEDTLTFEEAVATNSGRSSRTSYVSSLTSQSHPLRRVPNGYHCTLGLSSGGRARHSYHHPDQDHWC
T1 sequence (P54284 whole entry partner): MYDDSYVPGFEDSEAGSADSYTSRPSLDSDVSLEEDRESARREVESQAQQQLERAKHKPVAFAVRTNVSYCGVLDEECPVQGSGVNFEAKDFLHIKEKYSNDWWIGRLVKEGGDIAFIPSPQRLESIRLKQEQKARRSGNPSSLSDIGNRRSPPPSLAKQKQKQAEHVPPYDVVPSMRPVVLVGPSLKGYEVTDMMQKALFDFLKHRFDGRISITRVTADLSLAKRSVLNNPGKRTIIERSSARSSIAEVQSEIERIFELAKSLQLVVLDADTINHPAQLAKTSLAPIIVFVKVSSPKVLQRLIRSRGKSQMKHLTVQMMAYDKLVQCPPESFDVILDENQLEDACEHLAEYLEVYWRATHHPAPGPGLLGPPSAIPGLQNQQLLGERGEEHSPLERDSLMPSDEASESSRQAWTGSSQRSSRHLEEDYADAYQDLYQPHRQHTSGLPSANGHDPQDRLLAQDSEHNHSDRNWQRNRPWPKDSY
T1 sequence (P54289 25-956 partner limits assumed): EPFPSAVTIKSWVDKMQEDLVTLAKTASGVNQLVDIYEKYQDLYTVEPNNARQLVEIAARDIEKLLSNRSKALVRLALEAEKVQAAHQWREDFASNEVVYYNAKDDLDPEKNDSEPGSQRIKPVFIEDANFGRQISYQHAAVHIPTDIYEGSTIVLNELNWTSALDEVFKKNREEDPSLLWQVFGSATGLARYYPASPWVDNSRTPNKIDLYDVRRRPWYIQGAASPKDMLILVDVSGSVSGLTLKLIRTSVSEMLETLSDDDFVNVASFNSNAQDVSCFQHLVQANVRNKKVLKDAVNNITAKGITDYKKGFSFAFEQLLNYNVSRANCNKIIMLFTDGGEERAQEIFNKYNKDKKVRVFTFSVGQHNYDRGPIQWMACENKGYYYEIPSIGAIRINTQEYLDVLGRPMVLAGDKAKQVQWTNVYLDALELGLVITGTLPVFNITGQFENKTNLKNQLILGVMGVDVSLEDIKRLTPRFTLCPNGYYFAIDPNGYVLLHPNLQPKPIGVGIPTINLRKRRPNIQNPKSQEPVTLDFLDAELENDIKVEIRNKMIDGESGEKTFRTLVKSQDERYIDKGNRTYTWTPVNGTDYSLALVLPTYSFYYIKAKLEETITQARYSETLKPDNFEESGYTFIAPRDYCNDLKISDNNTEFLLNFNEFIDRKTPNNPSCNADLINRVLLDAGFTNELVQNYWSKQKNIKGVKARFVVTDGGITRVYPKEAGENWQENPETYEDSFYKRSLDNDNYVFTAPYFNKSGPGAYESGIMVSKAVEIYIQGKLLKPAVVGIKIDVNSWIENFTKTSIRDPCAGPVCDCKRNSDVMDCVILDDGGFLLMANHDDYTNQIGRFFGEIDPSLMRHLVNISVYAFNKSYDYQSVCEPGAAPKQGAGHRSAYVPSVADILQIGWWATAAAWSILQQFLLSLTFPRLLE
T1 sequence (P54289 957-1103 partner limits assumed): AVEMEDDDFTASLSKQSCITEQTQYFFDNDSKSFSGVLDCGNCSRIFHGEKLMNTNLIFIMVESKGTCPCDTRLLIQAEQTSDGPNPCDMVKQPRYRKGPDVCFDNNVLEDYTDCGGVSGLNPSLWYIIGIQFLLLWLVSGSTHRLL

In general, inhibition refers to how much of the control response was suppressed. Broadly, the IC50 is the concentration needed to halve the response being measured. Consider `COc1ccc(-n2nc3c(c2-c2ccc(Cl)cc2)CN(S(C)(=O)=O)C3)c(F)c1` [Cpd 78, 3-(4-Chlorophenyl)-2-(2-fluoro-4-methoxyphenyl)-5-(methylsulfonyl)-2,4,5,6-tetrahydropyrrolo[3,4-c]pyrazole], for which the IC50 was determined as 0.2 µM. In addition, the inhibition at 0.33 µM (FDSS, 50 mM KCl) was 62%. In the case of `COc1cc(F)ccc1-n1nc2c(c1-c1ccc(Cl)cc1)CN(S(C)(=O)=O)C2` [Cpd 70, 3-(4-Chlorophenyl)-2-(4-fluoro-2-methoxyphenyl)-5-(methylsulfonyl)-2,4,5,6-tetrahydropyrrolo[3,4-c]pyrazole], the IC50 was determined as 0.075 µM. For the setting “FDSS, 50 mM KCl”, the inhibition at 0.33 µM stood at 74%. In the case of `COc1ccc(-n2nc3c(c2-c2ccc(Cl)cc2)CN(S(=O)(=O)C(C)C)C3)c(C)c1` [Cpd 67, 3-(4-Chlorophenyl)-2-(4-methoxy-2-methylphenyl)-5-[(1-methylethyl)sulfonyl]-2,4,5,6-tetrahydropyrrolo[3,4-c]pyrazole], the IC50 amounted to 0.19 µM. Where the note is “FDSS, 50 mM KCl”, the inhibition at 0.33 µM was 61%. As for `COc1ccccc1-n1nc2c(c1-c1ccc(Cl)cc1)CN(S(=O)(=O)CCN1C(=O)CCC1=O)C2` [Cpd 42, 1-(2-{[3-(4-Chlorophenyl)-2-(2-methoxyphenyl)-2,6-dihydropyrrolo[3,4-c]pyrazol-5(4H)-yl]sulfonyl}ethyl)pyrrolidine-2,5-dione], the concentration for half-maximal inhibition (IC50) was 0.048 µM. Still for that read-out and setting: for `Cc1ccc(S(=O)(=O)N2Cc3nn(-c4ccccc4C(F)(F)F)c(-c4ccc(Cl)cc4)c3C2)cc1` [Cpd 17, 3-(4-Chlorophenyl)-5-[(4-methylphenyl)sulfonyl]-2-[2-(trifluoromethyl)phenyl]-2,4,5,6-tetrahydropyrrolo[3,4-c]pyrazole] the value was 0.3 µM. On to `O=S(=O)(NCCN1CCOCC1)c1ccc(N2Cc3nn(-c4ccccc4OC(F)(F)F)c(-c4ccc(Cl)cc4)c3C2)cc1` [Cpd 26, 4-[3-(4-Chlorophenyl)-2-[2-(trifluoromethoxy)phenyl]-2,6-dihydropyrrolo[3,4-c]pyrazol-5(4H)-yl]-N-(2-morpholin-4-ylethyl)benzenesulfonamide], for which the inhibition at 1 µM (1 μM compound, FDSS, 50 mM KCl) was 57%.

On to `COc1cc(C)ccc1-n1nc2c(c1-c1ccc(Cl)cc1)CN(S(=O)(=O)C(C)C)C2` [Cpd 75, 3-(4-Chlorophenyl)-2-(2-methoxy-4-methylphenyl)-5-[(1-methylethyl)sulfonyl]-2,4,5,6-tetrahydropyrrolo[3,4-c]pyrazole], for which the IC50 came out at 0.032 µM. Moreover, under “FDSS, 50 mM KCl”, the inhibition at 0.33 µM is 93%. Turning to `CCOc1ccccc1-n1nc2c(c1-c1ccc(Cl)cc1)CN(S(=O)(=O)Cc1ccccc1)C2` [Cpd 53, 5-(Benzylsulfonyl)-3-(4-chlorophenyl)-2-(2-ethoxyphenyl)-2,4,5,6-tetrahydropyrrolo[3,4-c]pyrazole], the IC50 was found to be 0.007 µM. The same measure, in the same setting: the same measure for `COc1ccccc1-n1nc2c(c1-c1ccc(Cl)cc1)CN(C(=O)N(C)C)C2` [Cpd 34, 3-(4-Chlorophenyl)-2-(2-methoxyphenyl)-N,N-dimethyl-2,6-dihydropyrrolo[3,4-c]pyrazole-5(4H)-carboxamide]: 0.17 µM; for `CS(=O)(=O)N1Cc2nn(-c3ccccc3C(F)(F)F)c(-c3ccc(Cl)cc3)c2C1` [Cpd 15, 3-(4-Chlorophenyl)-5-(methylsulfonyl)-2-[2-(trifluoromethyl)phenyl]-2,4,5,6-tetrahydropyrrolo[3,4-c]pyrazole]: 0.28 µM. With `COc1cc(C)ccc1-n1nc2c(c1-c1ccc(Cl)cc1)CN(S(C)(=O)=O)C2` [Cpd 74, 3-(4-Chlorophenyl)-2-(2-methoxy-4-methylphenyl)-5-(methylsulfonyl)-2,4,5,6-tetrahydropyrrolo[3,4-c]pyrazole], the IC50 amounted to 0.047 µM. Further, the inhibition at 0.33 µM (FDSS, 50 mM KCl) was determined as 82%. On to `CN(C)S(=O)(=O)N1Cc2nn(-c3ccccc3OC(C)(C)C)c(-c3ccc(Cl)cc3)c2C1` [Cpd 91, 2-(2-tert-Butoxyphenyl)-3-(4-chlorophenyl)-N,N-dimethyl-2,6-dihydropyrrolo[3,4-c]pyrazole-5(4H)-sulfonamide], for which the IC50 amounted to 0.063 µM. Moreover, the inhibition at 0.33 µM (FDSS, 50 mM KCl) stood at 87%.
